Experimental data from patent US20250375413A1, “METHOD OF INHIBITING LIPASE ACTIVITY IN AGING” (The Regents of the University of California, priority 2024, published 2025).
Entries after “also recorded” stand apart in the source; their conditions may differ.

Assays:
[1] = tested on: mucin layer on the epithelium of the small intestine; assay: Mucin layer density in small intestine (alcian blue); format: in vivo, rat; conditions: old rats, 14 days oral, upper jejunum
From the text: (§1) Small intestine: Full-thickness tissue blocks of the wall of the proximal jejunum (3×5 mm) were fixed from all sides in 10% formalin. Digestive enzymes were detected with primary and secondary antibodies labeled with 3, 3′-diaminobenzidine (DAB, Peroxidase Substrate Kit, ab64238, Abcam®).
The mucin-containing layer on the epithelial cells of the small intestine was stained using alcian blue (pH 2.5, kt 003; Diagnostic BioSystems, Pleasanton, CA) followed by a rinse in distilled water and mounted on a microscope slide (Vector Mount AQ Aqueous Mounting Medium, Vector® Laboratories, Burlington, CA).

[2] = Blood glucose level at tissue collection; format: in vivo, rat; conditions: old rats, two-week treatment
From the text: At the time of tissue collection, fresh femoral arterial blood was used to measure the blood glucose level (Contour®, Bayer® Diabetes Care, Tarrytown, NY) and the percent of glycated hemoglobin levels (AIC Home Test; Bristol-Myers Squibb®; NY, NY).

[3] = Effect of oral treatment on digestion / body weight; format: in vivo, rat; conditions: old rats, temporary oral treatment in drinking water
From the text: Male Wistar rats (Harlan Sprague Dawley Inc., Indianapolis, IN) at maturity (4 months, 300 to 350 gm) and at old age (24 months, 375 to 450 gm) were included in the study. The animals were maintained on standard laboratory chow (8604 Teklad rodent diet; Harlan Laboratories, Indianapolis, Ind) without restriction and water ad libitum and maintained in a separate room without pathogen-free conditions.

pancreatic trypsin = conditions: old-treated rats (24 months, 14 days oral) compared with young
Description: A femoral venous catheter was placed after general anesthesia (pentobarbital sodium, 50 mg/kg [Abbott Laboratories, North Chicago, Il1], intramuscularly after local anesthesia [2% lidocaine HCl; Hospira, Inc, Lake Forrest, Il1]). Tissues (intestine, liver, lung, heart, kidney, brain, mesentery, skin) were immediately collected after euthanasia (Beuthanasia i.v., 120 mg/kg, Schering-Plough Animal Health Corp, Union, NJ), fixed (formalin, 10%, neutral buffered, 1 hr), postfixed (fresh formalin, 24 hrs), and stored (formalin, 10%). The period between initial anesthesia and fixation of the tissues was below 60 minutes. […]
Primary antibodies were diluted to 1-1.5 μl/1000 μl of phosphate-buffered saline. […] No counterstain was applied to facilitate quantitative label intensity measurements. […] For each tissue, the labeling procedures were standardized among the animal groups to permit a quantitative comparison of label densities between ages and treatment with digital image analysis.
Images of the immunolabel density were recorded at multiple magnifications (between 10× objective, numerical aperture 0.25, and 60×, numerical aperture 1.4). They were recorded under standard light conditions with fixed optical and digital camera settings (SPOT Insight® GIGABIT camera, Sterling Height) so that the camera serves as a quantitative light intensity meter without pixel intensity saturation. […]

insulin receptor = assay: Brain insulin receptor extracellular domain immunolabel density; format: in vivo, rat; conditions: old rats, two-week treatment
From the text: Sections without primary antibodies were used as negative controls.
Insulin receptors' densities on random tissue sections, labeled with an antibody against the extracellular domain, are digitally recorded by placing an optical window on the cell and determining light intensity at a constant incident light Io.

[4] = tested on: pancreatic trypsin and amylase; assay: Digestive enzyme (trypsin, amylase) accumulation in the intestinal wall, whole mount co-labeling; format: in vivo, rat; conditions: old rats, 14 days oral; villi tips and submucosa
From the text: as §1
To co-label the small intestine for mucin and trypsin, the fixed intestine was immersed in the primary antibody against trypsin and stained with DAB substrate. Thereafter the tissue section was embedded in resin and sectioned into thin (1 μm) sections. The mucin label (alcian blue), was applied to the thin section, coverslipped, and imaged.

In the case of tranexamic acid [trypsin inhibitor], the “mucin layer density on intestinal villi” value [1] is reported as “partially restored; also recorded: restored in part”, the plasma/blood glucose level [2] is reported as “mitigated; also recorded: restored in part” and the “attenuation of digestion, such as reduction of body weight” value [3] is reported as “did not lead to a detectable attenuation of digestion”. For the same substance, the “trypsin label density in the brain” value (pancreatic trypsin) was “almost reached the level in the young (no significant difference)”, the “trypsin label density in the mesentery” value (pancreatic trypsin) was “not different from the young” and the “density of insulin receptor ectodomains in cerebral cortex” value (insulin receptor) was “in part restored; also recorded: restored in part”. The “accumulation of trypsin and amylase in the intestinal wall” value [4] was “attenuated”.
